Laboratory results taken from article PMC12766730, “Controlled Self-Immolative Release of β‑Lapachone via an Optimized para-Hydroxybenzyl Linker for Targeted Pancreatic Cancer Therapy” (Journal of the American Chemical Society, 2025).
Read-outs that look alike come from different tables or passages of the source.

How the values were obtained:
[1] = HPLC stability assay of prodrugs in buffers pH 3, 5, 7, 7.4 (PBS), 9 at 37 °C for 72 h without trigger; format: physicochemical; details: after dilution into aqueous buffer
[2] = parameters: method as in Gong et al.; details: pH 7.4; 5 equiv H2O2; ref Gong et al.; cited from earlier work
[3] = HPLC stability assay of prodrugs in buffers pH 3, 5, 7, 7.4 (PBS), 9 at 37 °C for 72 h without trigger; format: physicochemical; details: 37 °C, 72 h, pH 3–9
Protocol: The diastereomeric mixture of each β-glucuronide–PHB-β-lapachone prodrug (16a–j) and PAB derivative 22 were then tested for stability in citrate-phosphate buffers across a range of pHs (3, 5, 7, 7.4 (PBS), 9) via an HPLC stability assay. For derivatives 16a, 16b, 16d, 16e, 16h, and 16j, when no β-glucuronidase enzyme was added, both diastereomers of 16 were fully stable at 37 °C for 72 h (Figures a,d, S63, S64, S66–68, S71, and S73). […] This premature release was greatest at acidic pH 3 for 16g, with very minimal lapachone release detected at pH 5–9 (Figure c). The released lapachone was quantified and compared to the starting concentration of each prodrug to calculate the percent of the prodrug that had been prematurely released (Figures f,g, S76). […] Therefore, a trade-off exists between ring activation, improving the release rate from 3 while also decreasing prodrug stability, and it rendered 16g clinically disadvantageous.  5 Stability of prodrugs is pH dependent. The representative HPLC traces for (a) a stable prodrug 16a and (b) an unstable prodrug 16g are shown after incubation at 37 °C in pH 7.4 PBS buffer. […] (c) The area of the lapachone peak for 16g normalized to the IS was plotted, displaying substantial growth over time at pH 3. […] For panels c–g, each value is plotted as the mean ± SD of three replicates. The HPLC traces (Figures S50–S62) and peak area graphs (Figures S63–S75) for all other derivatives can be found in the Supporting Information. The stability of 26 was also evaluated from pH 3–9 (Figures d,f–h S86–S87). […] This degradation was the largest at pH 9, with a measurable decrease in the prodrug peak area after 72 h (Figure g). The lapachone released after 72 h was quantified using a standard curve (Tables S6.1–S6.2). At pH 3 and 5, approximately 0.2% of the total prodrug lapachone had been released.

PANC-1 [4] = test: PDAC cell viability after 72 h of treatment, PANC-1; format: cell-based; details: Homo sapiens, PANC-1, exogenous β-glucuronidase added
Protocol: (§1) All ortho-quinone prodrug derivatives were tested on two pancreatic cancer cell lines, PANC-1 and AsPC-1, to assess efficacy in cell killing (Figures , S88–89, S91, Tables , and S8.1). Exogenous β-glucuronidase was added to the cell media to mimic the extracellular enzyme present in the TME. […] Those derivatives with release rates slower than that of 16a, like 16e, had less efficacy in cells comparatively (Table ).
(§2) 7 PDAC cell viability with prodrug treatment. Representative PANC-1 (a) and AsPC-1 (b) cell viability data of four β-lapachone prodrug derivatives after 72 h of treatment with exogenous β-glucuronidase added. Panels (c, d) show the toxicity of functional prodrugs up to 100 μM in PANC-1 (c) and AsPC-1 (d) cells without exogenous β-glucuronidase enzyme present after 72 h incubation.
(§3) To assess the TW of the prodrug derivatives, we tested each of them in both the PANC-1 and AsPC-1 cell lines at up to 100 μM without the β-glucuronidase enzyme present. In agreement with the HPLC stability assay data, we saw no toxicity in all stable prodrug derivatives up to this concentration (Figure c,d). […] In comparison, all the stable glucuronide prodrug derivatives retained 100% viability at 100 μM. […] It is generally considered that a drug has a good therapeutic safety profile if the TI is greater than 10, which our best derivatives far exceed, signaling that our prodrug is safe to deliver systemically in future in vivo experiments and should not cause any adverse effects in areas where β-glucuronidase is not overexpressed. ,

AsPC-1 [5] = test: PDAC cell viability after 72 h of treatment, AsPC-1; format: cell-based; details: Homo sapiens, ASPC1, exogenous β-glucuronidase added, average ± SD of biological replicates, read-out: AsPC-1 IC50
Protocol: as §1, §2, §3

PANC-1 [6] = test: Reactive oxygen species generation after 24 h treatment, PANC-1; format: cell-based
Excerpt: (§4) 8 Target expression, ROS production, and quinone methide toxicity in PDAC Cell Lines. […] The A549 cell line was used as a positive control for NQO1 enzyme expression, and the HL-60 cell line was used as a positive control for 5-LO enzyme expression. For β-glucuronidase expression, two consecutive technical replicates are shown for each biological replicate, with all three biological replicates represented for both cell lines. […] Results were normalized to baseline cellular ROS activity as 0 and positive control tert-butyl hydrogen peroxide (TBHP) as 100. Adjusted p-values of 0.0012 (**) and <0.0001 (****) are shown for statistically significant comparisons.

AsPC-1 [7] = test: Reactive oxygen species generation after 24 h treatment, AsPC-1; format: cell-based
Excerpt: as §4

[8] = parameters: method as in Dunsmore et al.; details: k obs of compound 4 previously reported, ref Dunsmore et al., cited from earlier work
[9] = no extracellular enzyme, compared to β-lapachone

In the case of CC1(C)CCC2=C(O1)c1ccccc1C(O)(Cc1ccc(B3OC(C)(C)C(C)(C)O3)cc1)C2=O (stereo not drawn) [compound 24], the “time to complete hydrolysis into boronic acid 26” value [1] is given as no more than 5 min and the “time to complete release of 1” value [2] is given as no more than 2 h.
For COc1cc(O[C@@H]2O[C@H](C(=O)O)[C@@H](O)[C@H](O)[C@H]2O)ccc1CC1(O)C(=O)C2=C(OC(C)(C)CC2)c2ccccc21 (mixture of isomers) [16f], the “stability of the prodrug without triggering enzyme” value [3] was “trace β-lapachone release was detected”, the IC50 (PANC-1 [4]; average ± SD of biological replicates, read-out: PANC-1 IC50) was 700 ± 200 nM and the IC50 (PANC-1 [4]; representative experiment, read-out: IC50 on PANC-1, representative viability data (Figure 7a)) was 600 nM. For the same molecule, the IC50 (AsPC-1 [5]) was 2900 ± 60 nM, the “ROS generation without β-glucuronidase” value (PANC-1 [6]; [9]) was “significantly less ROS than β-lapachone alone” and the “ROS generation with β-glucuronidase” value (PANC-1 [6]; β-glucuronidase added) was “restored generation of ROS”. For the same molecule, the “ROS generation without β-glucuronidase” value (AsPC-1 [7]; [9]) was “significantly less ROS than β-lapachone alone” and the “ROS generation with β-glucuronidase” value (AsPC-1 [7]; β-glucuronidase added) was “restored generation of ROS”.
In the case of CC1(C)CCC2=C(O1)c1ccccc1C(O)(Cc1ccc(N)cc1)C2=O (stereo not drawn) [compound 4], the “half-life of quinone release at pH 5” value ([8]; pH 5) is given as 101 ± 7 h and the “t 1/2 at pH 6 (drug release half-life)” value ([8]; pH 6) is given as 931 h.
